The text below walks through data of US9303012B2, “Pyridine-2-amides useful as CB2 agonists” (Hoffmann-La Roche Inc., priority 2012, dated 2016).

A value given as a limit tells only on which side of the number the result lay.

In one assay the target is human CB1 receptors (Homo sapiens (Human), UniProt P21554). Kind of assay: functional cAMP assay, CHO cells expressing human CB1 receptors. The format is cell-based. The method, boiled down: (§1)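 CHO-hCB1/hCB2 cells, KRB + 1 mM IBMX preincubation 30 min 30 °C; cpd 30 min 30 °C; lysis + TR-FRET cAMP detection, 2 h RT; cAMP from std curve; EC50.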
Chain of human CB1 receptors (P21554 whole entry): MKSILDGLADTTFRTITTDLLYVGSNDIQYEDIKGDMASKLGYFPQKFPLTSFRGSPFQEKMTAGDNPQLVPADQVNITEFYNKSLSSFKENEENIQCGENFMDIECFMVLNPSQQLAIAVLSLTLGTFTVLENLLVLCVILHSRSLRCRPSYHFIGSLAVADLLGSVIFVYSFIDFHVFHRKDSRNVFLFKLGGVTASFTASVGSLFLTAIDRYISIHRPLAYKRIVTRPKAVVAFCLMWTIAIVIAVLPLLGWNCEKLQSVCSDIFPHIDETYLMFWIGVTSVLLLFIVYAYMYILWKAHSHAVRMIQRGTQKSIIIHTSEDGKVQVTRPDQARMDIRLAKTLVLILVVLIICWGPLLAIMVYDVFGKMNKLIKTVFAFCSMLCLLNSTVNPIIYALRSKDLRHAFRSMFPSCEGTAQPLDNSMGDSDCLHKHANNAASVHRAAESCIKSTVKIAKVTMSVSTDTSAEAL
On the technique in general: Cyclic AMP is a second messenger, typically raised through Gs and lowered through Gi signalling.

The next assay addresses human CB2 receptors (Homo sapiens (Human), UniProt P34972). Kind of assay: functional cAMP assay, CHO cells expressing human CB2 receptors. The format is cell-based. The method, boiled down: as §1

Chain of human CB2 receptors (P34972 whole entry): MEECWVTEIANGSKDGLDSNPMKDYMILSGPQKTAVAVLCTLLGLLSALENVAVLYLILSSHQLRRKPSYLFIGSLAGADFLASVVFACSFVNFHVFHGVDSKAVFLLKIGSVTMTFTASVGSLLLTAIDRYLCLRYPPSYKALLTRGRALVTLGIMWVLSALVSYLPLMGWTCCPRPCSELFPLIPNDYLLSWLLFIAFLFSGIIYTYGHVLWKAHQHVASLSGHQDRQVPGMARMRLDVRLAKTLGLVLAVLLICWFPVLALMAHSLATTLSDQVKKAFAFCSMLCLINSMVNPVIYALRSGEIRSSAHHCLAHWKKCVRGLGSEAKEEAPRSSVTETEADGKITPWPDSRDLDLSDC

In general, EC50 refers to the concentration at which the effect is half-maximal. As to `NC(=O)[C@@H]1CC(F)(F)CN1C(=O)c1ccc(C2CC2)c(OCC2CCCO2)n1` (stereo partly drawn) [Example 75, (S)-1-{5-Cyclopropyl-6-[(R,S)-1-(tetrahydro-furan-2-yl)methoxy]-pyridine-2-arbonyl}-4,4-difluoro-pyrrolidine-2-carboxylic acid amide], the EC50 on human CB1 receptors was > 10000 nM; at human CB2 receptors, 16.2 nM.
In the case of `NC(=O)[C@@H]1CC(F)(F)CN1C(=O)c1ccc(C2CC2)c(Cc2ccc(F)cc2)n1` [Example 76, (S)-1-[5-Cyclopropyl-6-(4-fluoro-benzyl)-pyridine-2-carbonyl]-4,4-difluoro-pyrrolidine-2-carboxylic acid amide], the concentration for a half-maximal effect (EC50) at human CB1 receptors came to 167 nM; on human CB2 receptors it was 0.2 nM.
Consider `CC1(C)C[C@H](C(N)=O)N(C(=O)c2ccc(N3CC(F)(F)C3)c(OCC3CC3)n2)C1` [Example 77, (+)-1-[6-Cyclopropylmethoxy-5-(3,3-difluoro-azetidin-1-yl)-pyridine-2-carbonyl]-4,4-dimethyl-pyrrolidine-2-carboxylic acid amide], for which the results for the EC50 on human CB1 receptors and on human CB2 receptors were > 10000 nM and 194 nM, respectively.
For the compound `CC1(C)C[C@@H](C(N)=O)N(C(=O)c2ccc(N3CC(F)(F)C3)c(OCC3CC3)n2)C1` [Example 78, (−)-1-[6-Cyclopropylmethoxy-5-(3,3-difluoro-azetidin-1-yl)-pyridine-2-carbonyl]-4,4-dimethyl-pyrrolidine-2-carboxylic acid amide], the results for the EC50 on human CB1 receptors and at human CB2 receptors were > 10000 nM and 1.2 nM, respectively.
For the compound `NC(=O)[C@@H]1C[C@H](O)CN1C(=O)c1ccc(N2CC(F)(F)C2)c(OCC2CC2)n1` [Example 79, (2S,4S)-1-[6-Cyclopropylmethoxy-5-(3,3-difluoro-azetidin-1-yl)-pyridine-2-carbonyl]-4-hydroxy-pyrrolidine-2-carboxylic acid amide], the EC50 is > 10000 nM at human CB1 receptors and 519 nM at human CB2 receptors.
For the compound `NC(=O)[C@@H]1C[C@H](F)CN1C(=O)c1ccc(N2CC(F)(F)C2)c(OCC2CC2)n1` [Example 80, (2S,4S)-1-[6-Cyclopropylmethoxy-5-(3,3-difluoro-azetidin-1-yl)-pyridine-2-carbonyl]-4-fluoro-pyrrolidine-2-carboxylic acid amide], the EC50 was > 10000 nM on human CB1 receptors and 342 nM on human CB2 receptors.
On to `Cc1nnc(CN(C(=O)c2ccc(N3CC(F)(F)C3)c(OCC3CC3)n2)C2CC2)o1` [Example 81, 6-Cyclopropylmethoxy-5-(3,3-difluoro-azetidin-1-yl)-pyridine-2-carboxylic acid cyclopropyl-(5-methyl-[1,3,4]oxadiazol-2-ylmethyl)-amide], for which the EC50 at human CB1 receptors was > 10000 nM; at human CB2 receptors, 652 nM.
The corresponding values for `O=C(c1ccc(N2CC(F)(F)C2)c(OCC2CC2)n1)N1CCC2(CC(O)CO2)C1` (centres unmarked) [Example 82, [6-Cyclopropylmethoxy-5-(3,3-difluoro-azetidin-1-yl)-pyridin-2-yl]-(3-hydroxy-1-oxa-7-aza-spiro[4.4]non-7-yl)-methanone] are > 10000 nM and 356 nM.
Turning to `O=C(c1ccc(N2CC(F)(F)C2)c(OCC2CC2)n1)N1CC2(CC(O)CO2)C1` (centres unmarked) [Example 83, [6-Cyclopropylmethoxy-5-(3,3-difluoro-azetidin-1-yl)-pyridin-2-yl]-(7-hydroxy-5-oxa-2-aza-spiro[3.4]oct-2-yl)-methanone], the EC50 on human CB1 receptors was > 10000 nM; on human CB2 receptors it was 760 nM.
The corresponding values for `CC1(C)CCCN1C(=O)c1ccc(C2CC2)c(OCC(F)(F)C(F)(F)F)n1` [Example 84, [5-Cyclopropyl-6-(2,2,3,3,3-pentafluoro-propoxy)-pyridin-2-yl]-(2,2-dimethyl-pyrrolidin-1-yl)-methanone] are > 10000 nM and 18.9 nM.
As to `O=C(c1ccc(N2CC(F)(F)C2)c(OCC2CC2)n1)N1C[C@H]2CC[C@@H](C1)O2` [Example 85, [6-Cyclopropylmethoxy-5-(3,3-difluoro-azetidin-1-yl)-pyridin-2-yl]-(1S,5R)-8-oxa-3-aza-bicyclo[3.2.1]oct-3-yl-methanone], the 50% effective concentration (EC50) on human CB1 receptors was > 10000 nM; at human CB2 receptors, 85.4 nM.
`O=C(c1ccc(N2CC(F)(F)C2)c(OCC2CC2)n1)N1[C@@H]2CC[C@H]1COC2` [Example 86, [6-Cyclopropylmethoxy-5-(3,3-difluoro-azetidin-1-yl)-pyridin-2-yl]-(1R,5S)-3-oxa-8-aza-bicyclo[3.2.1]oct-8-yl-methanone]: the EC50 is > 10000 nM on human CB1 receptors and 72.7 nM on human CB2 receptors.
In the case of `NC(=O)[C@H]1CC(F)(F)CN1C(=O)c1ccc(C2CC2)c(OCC(F)(F)C(F)(F)F)n1` [Example 87, (R)-1-[5-Cyclopropyl-6-(2,2,3,3,3-pentafluoro-propoxy)-pyridine-2-carbonyl]-4,4-difluoro-pyrrolidine-2-carboxylic acid amide], the EC50 at human CB1 receptors is > 10000 nM; at human CB2 receptors, 768 nM.
`NC(=O)C1CCCCN1C(=O)c1ccc(C2CC2)c(OCC2CC2)n1` (centres unmarked) [Example 88, 1-(5-Cyclopropyl-6-cyclopropylmethoxy-pyridine-2-carbonyl)-piperidine-2-carboxylic acid amide]: the half-maximal effective concentration (EC50) at human CB1 receptors was > 10000 nM; on human CB2 receptors, 180 nM.
In the case of `NC(=O)C1CSCCN1C(=O)c1ccc(C2CC2)c(OCC2CC2)n1` (centres unmarked) [Example 89, 4-(5-Cyclopropyl-6-cyclopropylmethoxy-pyridine-2-carbonyl)-thiomorpholine-3-carboxylic acid amide], the values for the EC50 at human CB1 receptors and at human CB2 receptors were > 10000 nM and 318 nM, respectively.
Turning to `CC1(C)CC(C(N)=O)N(C(=O)c2ccc(C3CC3)c(OCC3CC3)n2)C1` (centres unmarked) [Example 90, 1-(5-Cyclopropyl-6-cyclopropylmethoxy-pyridine-2-carbonyl)-4,4-dimethyl-pyrrolidine-2-carboxylic acid amide], the figures for the EC50 on human CB1 receptors and at human CB2 receptors were > 10000 nM and 14.8 nM, respectively.
With `NC(=O)[C@H]1CCCCN1C(=O)c1ccc(C2CC2)c(OCC2CC2)n1` [Example 91, (+)-1-(5-Cyclopropyl-6-cyclopropylmethoxy-pyridine-2-carbonyl)-piperidine-2-carboxylic acid amide], the half-maximal effective concentration (EC50) on human CB1 receptors was > 10000 nM; on human CB2 receptors, 893 nM.
In the case of `NC(=O)[C@@H]1CCCCN1C(=O)c1ccc(C2CC2)c(OCC2CC2)n1` [Example 92, (−)-1-(5-Cyclopropyl-6-cyclopropylmethoxy-pyridine-2-carbonyl)-piperidine-2-carboxylic acid amide], the EC50 was > 10000 nM at human CB1 receptors and 101 nM at human CB2 receptors.
On to `NC(=O)[C@@H]1CSCCN1C(=O)c1ccc(C2CC2)c(OCC2CC2)n1` [Example 93, (−)-4-(5-Cyclopropyl-6-cyclopropylmethoxy-pyridine-2-carbonyl)-thiomorpholine-3-carboxylic acid amide], for which the concentration for a half-maximal effect (EC50) on human CB1 receptors is > 10000 nM; on human CB2 receptors, 327 nM.
The corresponding values for `CC1(C)C[C@H](C(N)=O)N(C(=O)c2ccc(C3CC3)c(OCC3CC3)n2)C1` [Example 94, (+)-1-(5-Cyclopropyl-6-cyclopropylmethoxy-pyridine-2-carbonyl)-4,4-dimethyl-pyrrolidine-2-carboxylic acid amide] are > 10000 nM and 80.2 nM.
With `CC1(C)C[C@@H](C(N)=O)N(C(=O)c2ccc(C3CC3)c(OCC3CC3)n2)C1` [Example 95, (−)-1-(5-Cyclopropyl-6-cyclopropylmethoxy-pyridine-2-carbonyl)-4,4-dimethyl-pyrrolidine-2-carboxylic acid amide], the EC50 at human CB1 receptors is > 10000 nM; at human CB2 receptors it was 10.4 nM.
With `NC(=O)C1CSCN1C(=O)c1ccc(C2CC2)c(OCC2CC2)n1` (centres unmarked) [Example 96, 3-(5-Cyclopropyl-6-cyclopropylmethoxy-pyridine-2-carbonyl)-thiazolidine-4-carboxylic acid amide], the EC50 at human CB1 receptors was > 10000 nM; at human CB2 receptors it was 103 nM.
Regarding `NC(=O)[C@@H]1CSCN1C(=O)c1ccc(C2CC2)c(OCC2CC2)n1` [Example 97, (−)-3-(5-Cyclopropyl-6-cyclopropylmethoxy-pyridine-2-carbonyl)-thiazolidine-4-carboxylic acid amide], the EC50 on human CB1 receptors was > 10000 nM; on human CB2 receptors, 72.3 nM.
On the same counts, the results for `O=C(c1ccc(N2CC(F)(F)C2)c(OCC2CC2)n1)N1CC2(CCCO2)C1` [Example 99, [6-Cyclopropylmethoxy-5-(3,3-difluoro-azetidin-1-yl)-pyridin-2-yl]-(5-oxa-2-aza-spiro[3.4]oct-2-yl)-methanone] are > 10000 nM and 305 nM.
On the same counts, the results for `O=C(c1ccc(N2CC(F)(F)C2)c(OCC2CC2)n1)N1CCC2(CCCO2)C1` (centres unmarked) [Example 100, [6-Cyclopropylmethoxy-5-(3,3-difluoro-azetidin-1-yl)-pyridin-2-yl]-(1-oxa-7-aza-spiro[4.4]non-7-yl)-methanone] are > 10000 nM and 20.8 nM.
`O=C(c1ccc(N2CC(F)(F)C2)c(OCC2CC2)n1)N1CCCC12CCC2` [Example 101, (5-Aza-spiro[3.4]oct-5-yl)-[6-cyclopropylmethoxy-5-(3,3-difluoro-azetidin-1-yl)-pyridin-2-yl]-methanone]: the EC50 was > 10000 nM on human CB1 receptors and 4.9 nM on human CB2 receptors.
On the same counts, the results for `O=C(c1ccc(N2CC(F)(F)C2)c(OCC2CC2)n1)N1CC(F)(F)C1` [Example 102, [6-Cyclopropylmethoxy-5-(3,3-difluoro-azetidin-1-yl)-pyridin-2-yl]-(3,3-difluoro-azetidin-1-yl)-methanone] are > 10000 nM and 181 nM.
For `O=C(c1ccc(N2CC(F)(F)C2)c(OCC2CC2)n1)N1CCC2(CC2)C1` [Example 104, (5-Aza-spiro[2.4]hept-5-yl)-[6-cyclopropylmethoxy-5-(3,3-difluoro-azetidin-1-yl)-pyridin-2-yl]-methanone], the EC50 was > 10000 nM on human CB1 receptors and 7.4 nM at human CB2 receptors.
